{"source": "paper PMC4535329", "about": "(Bioorganic & medicinal chemistry letters, 2015)", "key": {"Solubility": {"test": "Solubility", "format": "physicochemical"}, "human mGlu5": {"target": "human mGlu5 (Homo sapiens, UniProt P41594)", "sequence (P41594 21-1212)": "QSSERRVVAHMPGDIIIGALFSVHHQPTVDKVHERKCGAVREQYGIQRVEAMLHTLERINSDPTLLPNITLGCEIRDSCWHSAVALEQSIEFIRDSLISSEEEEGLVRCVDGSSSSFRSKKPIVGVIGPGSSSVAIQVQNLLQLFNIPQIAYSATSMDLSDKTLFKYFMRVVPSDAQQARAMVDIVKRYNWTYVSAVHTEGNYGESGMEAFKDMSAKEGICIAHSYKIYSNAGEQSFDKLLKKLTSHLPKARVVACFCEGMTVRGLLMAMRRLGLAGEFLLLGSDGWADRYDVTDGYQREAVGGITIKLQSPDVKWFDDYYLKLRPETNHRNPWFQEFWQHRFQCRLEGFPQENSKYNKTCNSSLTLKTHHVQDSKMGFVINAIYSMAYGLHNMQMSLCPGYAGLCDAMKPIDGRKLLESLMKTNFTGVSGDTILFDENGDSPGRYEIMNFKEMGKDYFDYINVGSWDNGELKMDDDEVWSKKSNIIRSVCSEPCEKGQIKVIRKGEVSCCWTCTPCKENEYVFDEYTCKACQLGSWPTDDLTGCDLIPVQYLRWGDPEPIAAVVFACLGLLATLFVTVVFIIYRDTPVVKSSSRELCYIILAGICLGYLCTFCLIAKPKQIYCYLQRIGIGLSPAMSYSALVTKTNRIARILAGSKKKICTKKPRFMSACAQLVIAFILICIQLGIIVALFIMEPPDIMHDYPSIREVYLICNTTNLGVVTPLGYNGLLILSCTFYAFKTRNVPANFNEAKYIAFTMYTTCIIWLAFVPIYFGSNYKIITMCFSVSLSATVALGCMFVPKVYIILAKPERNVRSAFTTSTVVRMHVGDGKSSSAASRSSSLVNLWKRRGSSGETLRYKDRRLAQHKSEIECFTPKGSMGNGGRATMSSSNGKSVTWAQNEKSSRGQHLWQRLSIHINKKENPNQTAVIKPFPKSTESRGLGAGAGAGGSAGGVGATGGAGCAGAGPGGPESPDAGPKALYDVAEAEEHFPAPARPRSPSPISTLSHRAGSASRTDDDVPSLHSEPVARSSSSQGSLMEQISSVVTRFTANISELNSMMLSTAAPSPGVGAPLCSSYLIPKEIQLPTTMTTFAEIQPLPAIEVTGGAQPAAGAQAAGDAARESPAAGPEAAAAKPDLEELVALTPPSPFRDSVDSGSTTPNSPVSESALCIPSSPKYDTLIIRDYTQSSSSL", "test": "Calcium mobilization assay using HEK293 expressing human mGlu5", "format": "cell-based"}, "mGlu6": {"target": "mGlu6 (Homo sapiens, UniProt O15303)", "sequence (O15303 25-877)": "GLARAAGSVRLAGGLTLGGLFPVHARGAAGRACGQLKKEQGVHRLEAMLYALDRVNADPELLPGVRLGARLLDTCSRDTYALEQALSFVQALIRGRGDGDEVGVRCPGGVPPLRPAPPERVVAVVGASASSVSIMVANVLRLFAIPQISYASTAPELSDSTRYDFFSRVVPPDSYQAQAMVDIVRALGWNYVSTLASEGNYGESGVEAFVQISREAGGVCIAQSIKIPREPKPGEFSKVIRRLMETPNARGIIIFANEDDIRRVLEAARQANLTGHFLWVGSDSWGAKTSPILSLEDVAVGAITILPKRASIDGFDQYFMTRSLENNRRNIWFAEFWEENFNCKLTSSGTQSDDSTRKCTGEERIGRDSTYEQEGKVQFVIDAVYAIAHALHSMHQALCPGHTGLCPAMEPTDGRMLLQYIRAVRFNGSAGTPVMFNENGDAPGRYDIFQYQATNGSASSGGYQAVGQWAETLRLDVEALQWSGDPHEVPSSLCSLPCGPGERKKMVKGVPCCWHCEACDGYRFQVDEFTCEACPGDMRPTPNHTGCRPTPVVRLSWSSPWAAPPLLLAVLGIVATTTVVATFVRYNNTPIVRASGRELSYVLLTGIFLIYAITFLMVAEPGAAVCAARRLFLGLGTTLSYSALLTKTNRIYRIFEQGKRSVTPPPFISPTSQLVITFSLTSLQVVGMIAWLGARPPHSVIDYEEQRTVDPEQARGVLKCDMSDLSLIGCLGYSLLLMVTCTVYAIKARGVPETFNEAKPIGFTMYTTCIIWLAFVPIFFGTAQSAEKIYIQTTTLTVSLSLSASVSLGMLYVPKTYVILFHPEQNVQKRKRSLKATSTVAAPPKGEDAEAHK", "test": "mGlu selectivity", "format": "cell-based"}, "mGlu2": {"target": "mGlu2 (Homo sapiens, UniProt Q14416)", "test": "mGlu selectivity", "format": "cell-based"}, "mGlu7": {"target": "mGlu7 (Homo sapiens, UniProt Q14831)", "sequence (Q14831 35-915)": "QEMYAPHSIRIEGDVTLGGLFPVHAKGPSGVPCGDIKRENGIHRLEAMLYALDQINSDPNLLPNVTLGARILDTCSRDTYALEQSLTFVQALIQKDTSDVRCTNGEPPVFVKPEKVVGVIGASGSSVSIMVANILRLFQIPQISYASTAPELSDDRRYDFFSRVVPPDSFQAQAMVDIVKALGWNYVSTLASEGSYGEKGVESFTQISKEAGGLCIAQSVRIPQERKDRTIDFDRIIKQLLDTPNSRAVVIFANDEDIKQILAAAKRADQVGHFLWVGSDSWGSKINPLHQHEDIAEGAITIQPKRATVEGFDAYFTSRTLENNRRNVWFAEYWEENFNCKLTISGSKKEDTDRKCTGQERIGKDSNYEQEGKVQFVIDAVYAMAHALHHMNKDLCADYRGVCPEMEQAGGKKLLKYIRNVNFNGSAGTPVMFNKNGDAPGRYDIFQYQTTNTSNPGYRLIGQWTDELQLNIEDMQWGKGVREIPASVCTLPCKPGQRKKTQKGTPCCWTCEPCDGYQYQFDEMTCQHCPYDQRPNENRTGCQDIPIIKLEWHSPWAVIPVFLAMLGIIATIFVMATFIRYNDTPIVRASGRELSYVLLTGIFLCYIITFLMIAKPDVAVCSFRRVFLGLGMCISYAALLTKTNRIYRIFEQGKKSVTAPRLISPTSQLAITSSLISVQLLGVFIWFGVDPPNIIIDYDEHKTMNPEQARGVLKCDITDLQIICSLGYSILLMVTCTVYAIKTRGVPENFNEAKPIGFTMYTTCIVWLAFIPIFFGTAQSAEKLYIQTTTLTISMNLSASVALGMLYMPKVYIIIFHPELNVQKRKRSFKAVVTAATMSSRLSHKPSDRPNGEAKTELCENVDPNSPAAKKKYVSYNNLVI", "test": "mGlu selectivity", "format": "cell-based"}, "Ca channel": {"system": "Ca channel", "test": "Cardiovascular safety pharmacology: Ca channel", "format": "cell-based", "conditions": "read-out: Ca channel IC50"}, "mGlu8": {"target": "mGlu8 (Homo sapiens, UniProt O00222)", "test": "mGlu selectivity", "format": "cell-based"}, "mGlu4": {"target": "mGlu4 (Homo sapiens, UniProt Q14833)", "sequence (Q14833 33-912)": "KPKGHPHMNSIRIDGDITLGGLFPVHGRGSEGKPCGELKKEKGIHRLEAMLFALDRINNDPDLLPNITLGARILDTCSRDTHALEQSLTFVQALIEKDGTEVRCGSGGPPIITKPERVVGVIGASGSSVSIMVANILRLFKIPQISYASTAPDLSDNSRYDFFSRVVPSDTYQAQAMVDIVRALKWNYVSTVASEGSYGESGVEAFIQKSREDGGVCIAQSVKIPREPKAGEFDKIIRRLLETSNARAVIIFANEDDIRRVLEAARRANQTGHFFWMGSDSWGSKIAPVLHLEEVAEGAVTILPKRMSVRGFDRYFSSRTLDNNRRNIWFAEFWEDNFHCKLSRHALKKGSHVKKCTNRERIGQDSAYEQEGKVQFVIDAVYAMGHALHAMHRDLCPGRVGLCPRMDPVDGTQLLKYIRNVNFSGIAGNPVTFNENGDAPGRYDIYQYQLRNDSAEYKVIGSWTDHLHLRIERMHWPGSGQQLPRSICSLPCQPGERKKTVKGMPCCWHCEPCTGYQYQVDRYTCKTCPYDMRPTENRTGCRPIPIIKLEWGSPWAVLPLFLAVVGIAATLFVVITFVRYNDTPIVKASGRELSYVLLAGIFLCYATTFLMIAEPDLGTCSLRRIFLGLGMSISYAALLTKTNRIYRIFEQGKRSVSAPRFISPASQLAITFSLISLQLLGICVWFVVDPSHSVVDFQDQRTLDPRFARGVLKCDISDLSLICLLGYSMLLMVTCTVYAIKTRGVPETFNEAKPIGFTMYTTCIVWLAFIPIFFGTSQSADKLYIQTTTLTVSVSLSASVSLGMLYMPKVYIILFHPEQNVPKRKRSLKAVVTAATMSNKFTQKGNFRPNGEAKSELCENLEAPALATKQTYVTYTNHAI", "test": "mGlu selectivity", "format": "cell-based"}, "mGlu1": {"target": "mGlu1 (Homo sapiens, UniProt Q13255)", "test": "mGlu selectivity", "format": "cell-based"}, "mGlu3": {"target": "mGlu3 (Homo sapiens, UniProt Q14832)", "sequence (Q14832 23-879)": "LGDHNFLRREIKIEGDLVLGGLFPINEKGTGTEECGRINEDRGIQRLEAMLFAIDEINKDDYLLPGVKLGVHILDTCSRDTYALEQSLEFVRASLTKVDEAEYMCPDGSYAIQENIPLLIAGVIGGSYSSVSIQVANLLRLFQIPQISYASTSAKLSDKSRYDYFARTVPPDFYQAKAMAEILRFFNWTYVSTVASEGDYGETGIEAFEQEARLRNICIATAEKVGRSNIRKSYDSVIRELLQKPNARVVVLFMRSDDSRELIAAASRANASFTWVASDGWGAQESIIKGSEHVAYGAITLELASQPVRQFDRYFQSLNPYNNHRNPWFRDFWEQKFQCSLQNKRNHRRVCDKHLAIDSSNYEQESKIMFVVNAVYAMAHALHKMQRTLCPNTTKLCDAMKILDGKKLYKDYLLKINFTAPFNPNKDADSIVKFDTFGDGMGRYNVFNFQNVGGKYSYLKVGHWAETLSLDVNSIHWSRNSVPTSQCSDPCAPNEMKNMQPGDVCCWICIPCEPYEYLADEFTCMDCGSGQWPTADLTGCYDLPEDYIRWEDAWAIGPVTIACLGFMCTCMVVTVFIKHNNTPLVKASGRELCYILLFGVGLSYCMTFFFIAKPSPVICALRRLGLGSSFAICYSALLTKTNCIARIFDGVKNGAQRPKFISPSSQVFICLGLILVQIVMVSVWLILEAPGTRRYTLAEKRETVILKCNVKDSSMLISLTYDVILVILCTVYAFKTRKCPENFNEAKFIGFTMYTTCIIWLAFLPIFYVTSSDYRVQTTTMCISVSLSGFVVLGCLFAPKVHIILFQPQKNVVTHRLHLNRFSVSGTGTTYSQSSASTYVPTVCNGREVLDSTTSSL", "test": "mGlu selectivity: mGlu3 antagonist activity", "format": "cell-based"}, "Na channel": {"system": "Na channel", "test": "Cardiovascular safety pharmacology: Na channel", "format": "cell-based", "conditions": "read-out: Na channel IC50"}, "[1]": {"system": "amphetamine-induced hyperlocomotion (AHL)", "test": "Reversal of amphetamine-induced hyperlocomotion", "format": "in vivo, male, Sprague Dawley rats"}, "mGlu5": {"system": "mGlu5", "test": "Leftward fold-shift of a full glutamate concentration-response curve", "format": "cell-based", "conditions": "human and rat receptors, equal magnitude"}, "[2]": {"test": "Predicted hepatic clearance", "format": "in vitro ADME", "conditions": "rat"}, "[3]": {"test": "Predicted hepatic clearance", "format": "in vitro ADME", "conditions": "human"}}}
{"smiles": "O=C(c1c[nH]c2ccccc12)N1CCc2nc(COc3ccccc3)oc2C1", "note": "[11c]", "values": [{"measurement": "solubility (in words)", "setting": "Solubility", "result": "poor solubility"}]}
{"smiles": "O=C(c1cc2ccccc2[nH]1)N1CCc2nc(COc3ccccc3)oc2C1", "note": "[11a]", "values": [{"measurement": "mGlu5 PAM activity (in words)", "setting": "human mGlu5", "result": "inactive"}]}
{"smiles": "O=C(c1n[nH]c2ccccc12)N1CCc2nc(COc3ccccc3)oc2C1", "note": "[11e]", "values": [{"measurement": "solubility (in words)", "setting": "Solubility", "result": "poor solubility"}]}
{"smiles": "O=C(c1ccc(F)cc1)N1CCc2nc(COc3cccc(F)c3)oc2C1", "note": "[4b]", "values": [{"measurement": "activity versus mGlu6", "setting": "mGlu6", "result": "> 10", "unit": "µM"}, {"measurement": "activity versus mGlu2", "setting": "mGlu2", "result": "> 10", "unit": "µM"}, {"measurement": "activity versus mGlu7", "setting": "mGlu7", "result": "> 10", "unit": "µM"}, {"measurement": "solubility", "setting": "Solubility; FaSSIF", "result": 10, "unit": "µg/mL"}, {"measurement": "solubility", "setting": "Solubility; SGF", "result": 10, "unit": "µg/mL"}, {"measurement": "solubility, fold lower than 1", "setting": "Solubility; relative to 1", "result": 3, "unit": "×"}, {"measurement": "IC50", "setting": "Ca channel", "result": "> 10", "unit": "µM"}, {"measurement": "activity versus mGlu8", "setting": "mGlu8", "result": "> 10", "unit": "µM"}, {"measurement": "activity versus mGlu4", "setting": "mGlu4", "result": "> 10", "unit": "µM"}, {"measurement": "activity versus mGlu1", "setting": "mGlu1", "result": "> 10", "unit": "µM"}, {"measurement": "IC50", "setting": "mGlu3", "result": 410, "unit": "nM"}, {"measurement": "mGlu3 Glu min", "setting": "mGlu3; % Glu min", "result": 8, "unit": "%"}, {"measurement": "IC50", "setting": "Na channel", "result": "> 10", "unit": "µM"}, {"measurement": "minimum effective dose in AHL", "setting": "[1]; rat, po", "result": 30, "unit": "mpk"}]}
{"smiles": "O=C(c1n[nH]c2ncccc12)N1CCc2nc(COc3ccccc3)oc2C1", "note": "[11h]", "values": [{"measurement": "ago-PAM activity", "setting": "human mGlu5", "result": "modest ago-PAM activity"}, {"measurement": "ligand efficiency", "setting": "human mGlu5", "result": 0.31}, {"measurement": "fold-shift", "setting": "mGlu5", "result": "7.3–9.3 x"}, {"measurement": "predicted hepatic clearance CLhep", "setting": "[2]", "result": 36, "unit": "mL/min/kg"}, {"measurement": "predicted hepatic clearance CLhep", "setting": "[3]", "result": 9.1, "unit": "mL/min/kg"}, {"measurement": "MED in AHL, fold higher than for 1", "setting": "[1]; relative to 1", "result": 3, "unit": "fold"}]}
